{"source": "patent US20230151003A1", "about": "“COMPOUNDS AND METHODS OF USE” (Exelixis, Inc., priority 2020, published 2023)", "key": {"Mer": {"target": "T1, Mer (Homo sapiens, UniProt Q12866)", "T1 construct": "host or cells: 293A cells (Thermo Fisher #R70507)", "T1 sequence (Q12866 21-999)": "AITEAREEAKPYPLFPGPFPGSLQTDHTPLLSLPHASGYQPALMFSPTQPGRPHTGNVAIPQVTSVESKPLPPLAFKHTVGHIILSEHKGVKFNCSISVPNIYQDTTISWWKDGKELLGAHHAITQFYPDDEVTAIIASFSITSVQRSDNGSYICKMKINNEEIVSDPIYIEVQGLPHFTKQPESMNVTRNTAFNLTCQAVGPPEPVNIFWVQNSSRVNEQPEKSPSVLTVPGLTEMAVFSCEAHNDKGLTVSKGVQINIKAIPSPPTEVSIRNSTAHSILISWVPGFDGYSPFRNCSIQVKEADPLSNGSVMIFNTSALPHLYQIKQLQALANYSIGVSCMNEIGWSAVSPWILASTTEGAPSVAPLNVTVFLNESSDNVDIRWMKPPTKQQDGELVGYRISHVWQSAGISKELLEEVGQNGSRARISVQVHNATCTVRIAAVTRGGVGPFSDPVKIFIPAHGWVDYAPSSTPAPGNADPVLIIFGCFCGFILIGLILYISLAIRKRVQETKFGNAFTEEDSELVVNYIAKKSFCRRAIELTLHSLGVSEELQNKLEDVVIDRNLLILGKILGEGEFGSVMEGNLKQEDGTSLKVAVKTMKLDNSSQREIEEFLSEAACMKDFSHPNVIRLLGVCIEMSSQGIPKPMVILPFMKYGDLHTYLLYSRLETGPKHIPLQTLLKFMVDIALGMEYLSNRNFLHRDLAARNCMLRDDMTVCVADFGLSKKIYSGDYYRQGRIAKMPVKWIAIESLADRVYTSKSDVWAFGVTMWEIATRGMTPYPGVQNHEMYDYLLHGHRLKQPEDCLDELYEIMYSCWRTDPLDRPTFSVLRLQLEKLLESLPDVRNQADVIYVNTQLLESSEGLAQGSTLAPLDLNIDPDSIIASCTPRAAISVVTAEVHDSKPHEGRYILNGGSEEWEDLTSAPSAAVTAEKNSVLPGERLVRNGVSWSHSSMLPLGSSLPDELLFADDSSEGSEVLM", "experiment": "Mer autophosphorylation ELISA in transient transfected 293A cells", "assay_type": "cell-based", "conditions": "Table 3 Cellular Activities; MERTK-transfected 293A cells, phospho-Mer ELISA", "how_it_was_run": "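Phospho-Mer quantified by ELISA in lysates of transiently MERTK-transfected 293A cells after 1 h exposure to an 8-point compound series, serum-free, 0.3% DMSO. Activity normalized between DMSO-treated (100%) and reference inhibitor-treated (0%) lysates; IC50 via 4-parameter nonlinear regression.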"}, "Met": {"target": "Met (Homo sapiens, UniProt P08581)", "sequence (P08581 25-1390)": "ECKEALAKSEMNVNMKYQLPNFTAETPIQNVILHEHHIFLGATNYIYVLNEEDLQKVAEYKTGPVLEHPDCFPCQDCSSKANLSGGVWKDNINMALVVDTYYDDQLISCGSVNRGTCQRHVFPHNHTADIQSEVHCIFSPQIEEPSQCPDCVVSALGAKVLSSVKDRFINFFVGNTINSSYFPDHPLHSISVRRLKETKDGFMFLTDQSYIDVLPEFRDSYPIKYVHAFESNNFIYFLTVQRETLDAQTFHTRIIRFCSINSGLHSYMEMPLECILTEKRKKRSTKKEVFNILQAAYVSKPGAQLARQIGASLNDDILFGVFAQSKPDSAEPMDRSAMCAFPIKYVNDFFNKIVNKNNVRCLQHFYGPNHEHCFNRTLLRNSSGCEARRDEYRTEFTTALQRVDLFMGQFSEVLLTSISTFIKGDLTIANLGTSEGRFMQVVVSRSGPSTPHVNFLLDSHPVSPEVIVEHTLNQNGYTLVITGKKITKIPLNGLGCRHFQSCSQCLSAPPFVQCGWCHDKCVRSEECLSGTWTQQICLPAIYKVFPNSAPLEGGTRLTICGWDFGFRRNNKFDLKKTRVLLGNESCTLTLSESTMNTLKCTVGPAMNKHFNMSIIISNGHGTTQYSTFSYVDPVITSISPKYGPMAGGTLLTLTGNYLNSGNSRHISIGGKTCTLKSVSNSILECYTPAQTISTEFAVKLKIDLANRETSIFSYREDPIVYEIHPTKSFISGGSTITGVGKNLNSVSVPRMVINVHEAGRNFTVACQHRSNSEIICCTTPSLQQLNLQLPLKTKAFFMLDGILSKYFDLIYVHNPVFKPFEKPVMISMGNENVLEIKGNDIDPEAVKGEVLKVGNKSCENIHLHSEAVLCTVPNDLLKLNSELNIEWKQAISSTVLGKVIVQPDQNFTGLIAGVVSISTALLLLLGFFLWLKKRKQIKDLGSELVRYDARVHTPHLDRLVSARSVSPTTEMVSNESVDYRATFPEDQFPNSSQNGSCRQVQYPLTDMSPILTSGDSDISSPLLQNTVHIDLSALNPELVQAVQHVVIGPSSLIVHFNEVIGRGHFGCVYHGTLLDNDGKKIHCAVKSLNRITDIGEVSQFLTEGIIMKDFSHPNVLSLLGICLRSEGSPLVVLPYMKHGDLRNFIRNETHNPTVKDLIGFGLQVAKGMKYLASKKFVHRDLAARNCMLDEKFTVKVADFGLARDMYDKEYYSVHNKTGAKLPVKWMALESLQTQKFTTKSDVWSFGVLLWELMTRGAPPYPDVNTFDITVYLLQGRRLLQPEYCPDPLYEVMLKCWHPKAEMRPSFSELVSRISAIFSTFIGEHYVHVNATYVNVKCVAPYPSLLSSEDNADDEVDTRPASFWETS", "experiment": "Met autophosphorylation ELISA in PC-3 cells", "assay_type": "cell-based", "parameters": "endogenous in cells; host or cells: PC-3 prostate cancer cells (ATCC #CRL-1435)", "conditions": "Table 3 Cellular Activities, HGF-stimulated, phospho-Met ELISA, read-out: c-Met IC50", "how_it_was_run": "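IC50 derived by 4-parameter logistic regression of phospho-Met (panTyr) sandwich ELISA signal, scaled between HGF-stimulated DMSO and reference-inhibitor lysates. PC-3 cells, serum-starved 3 h, received an 8-point compound series (0.3% DMSO) for 1 h before 10 min stimulation with 100 ng/mL human HGF.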"}}}
{"smiles": "COc1cnc2c(Oc3ccc(NC(=O)c4cn(CCF)c(C)c(-c5cc(C)cs5)c4=O)cc3F)ccnc2c1", "note": "[Compound 328, 1-(2-Fluoroethyl)-N-[3-fluoro-4-[(7-methoxy-1,5-naphthyridin-4-yl)oxy]phenyl]-6-methyl-5-(4-methylthiophen-2-yl)-4-oxopyridine-3-carboxamide]", "values": [{"measurement": "IC50", "setting": "Mer", "result": "≤ 0.1", "unit": "µM"}, {"measurement": "IC50", "setting": "Met", "result": "≤ 0.1", "unit": "µM"}]}
{"smiles": "COc1cc2nccc(Oc3ccc(NC(=O)c4cccn(-c5ccc(F)cn5)c4=O)cc3F)c2nc1OC", "note": "[Compound 42, N-[4-[(6,7-Dimethoxy-1,5-naphthyridin-4-yl)oxy]-3-fluorophenyl]-1-(5-fluoropyridin-2-yl)-2-oxopyridine-3-carboxamide]", "values": [{"measurement": "IC50", "setting": "Mer", "result": "≤ 0.1", "unit": "µM"}, {"measurement": "IC50", "setting": "Met", "result": "≤ 0.1", "unit": "µM"}]}
{"smiles": "COc1cc2nccc(Oc3ccc(NC(=O)c4c5n(cc(-c6cccs6)c4=O)CCOC5)cc3)c2nc1OC", "note": "[Compound 299, N-[4-[(6,7-Dimethoxy-1,5-naphthyridin-4-yl)oxy]phenyl]-8-oxo-7-thiophen-2-yl-3,4-dihydro-1H-pyrido[2,1-c][1,4]oxazine-9-carboxamide]", "values": [{"measurement": "IC50", "setting": "Mer", "result": "≤ 0.1", "unit": "µM"}, {"measurement": "IC50", "setting": "Met", "result": "≤ 0.1", "unit": "µM"}]}
